According to patent US8802597B2, “Herbicidal pyrimidines” (E I du Pont de Nemours and Company, priority 2003, dated 2014):

Legend:
Experiment in all cases: Test G pre/postemergence
Type in all cases: in vivo
[1] = system: Canada horseweed (Conyza canadensis); conditions: Preemergence
How it was run: (§1)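 Seeds or nutlets were planted and treated preemergence with compound formulated in a non-phytotoxic solvent mixture containing surfactant; plants 2 to 18 cm tall (1- to 4-leaf stage) received postemergence sprays of the same formulation. After 12 to 21 days in a greenhouse, injury was rated visually against untreated controls on a 0–100 scale (100 = complete control).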

[2] = system: dallisgrass (Paspalum dilatatum)
How it was run: as §1

[3] = system: johnsongrass (Sorghum halepense); conditions: Preemergence
How it was run: as §1

[4] = system: common purslane (Portulaca oleracea)
How it was run: as §1

[5] = system: pitted morningglory (Ipomoea lacunosa)
How it was run: as §1

[6] = system: tropical spiderwort (Commelina benghalensis)
How it was run: as §1

[7] = system: itchgrass (Rottboellia cochinchinensis)
How it was run: as §1

[8] = system: goosegrass (Eleusine indica)
How it was run: as §1

[9] = system: common groundsel (Senecio vulgaris)
How it was run: as §1

[10] = system: spanishneedles (Bidens bipinnata); conditions: Preemergence
How it was run: as §1

kochia (Kochia scoparia) = system: kochia (Kochia scoparia)
How it was run: as §1

[11] = Preemergence, 62 g ai/ha, scale 0-100
[12] = Preemergence, 125 g ai/ha, scale 0-100
[13] = Preemergence, 250 g ai/ha, scale 0-100
[14] = Preemergence, 500 g ai/ha, scale 0 to 100
[15] = Postemergence, 250 g ai/ha, scale 0 to 100
[16] = Postemergence, 16 g ai/ha, scale 0 to 100
[17] = Postemergence, 31 g ai/ha, scale 0 to 100
[18] = Postemergence, 62 g ai/ha, scale 0 to 100
[19] = Postemergence, 125 g ai/ha, scale 0 to 100
[20] = Preemergence, 16 g ai/ha, scale 0-100
[21] = Preemergence, 31 g ai/ha, scale 0-100

CCOC(=O)c1nc(C2CC2)nc(N)c1Cl [Compound 4, ethyl 6-amino-5-chloro-2-cyclopropyl-4-pyrimidinecarboxylate]
Plant response rating, Horseweed ([1]; 62 g ai/ha, scale 0-100): 100
Plant response rating, Horseweed ([1]; 125 g ai/ha, scale 0-100): 100
Plant response rating, Horseweed ([1]; 250 g ai/ha, scale 0-100): 100
Plant response rating, Horseweed ([1]; 500 g ai/ha, scale 0 to 100): 100
Plant response rating, Dallisgrass [2, 11]: 0
Plant response rating, Dallisgrass [2, 12]: 50
Plant response rating, Dallisgrass [2, 13]: 95
Plant response rating, Dallisgrass [2, 14]: 100
Plant response rating, Johnsongrass ([3]; 62 g ai/ha, scale 0-100): 60
Plant response rating, Johnsongrass ([3]; 125 g ai/ha, scale 0-100): 75
Plant response rating, Johnsongrass ([3]; 250 g ai/ha, scale 0-100): 85
Plant response rating, Johnsongrass ([3]; 500 g ai/ha, scale 0 to 100): 95
Plant response rating, Purslane [4, 11]: 60
Plant response rating, Purslane [4, 12]: 100
Plant response rating, Purslane [4, 13]: 100
Plant response rating, Purslane [4, 14]: 100
Plant response rating, Morningglory [5, 11]: 100
Plant response rating, Morningglory [5, 12]: 100
Plant response rating, Morningglory [5, 13]: 100
Plant response rating, Morningglory [5, 14]: 100
Plant response rating, Spiderwort [6, 11]: 100
Plant response rating, Spiderwort [6, 12]: 100
Plant response rating, Spiderwort [6, 13]: 100
Plant response rating, Spiderwort [6, 14]: 100
Plant response rating, Itchgrass [7, 11]: 70
Plant response rating, Itchgrass [7, 12]: 70
Plant response rating, Itchgrass [7, 13]: 80
Plant response rating, Itchgrass [7, 14]: 95
Plant response rating, Goosegrass [8, 11]: 10
Plant response rating, Goosegrass [8, 12]: 60
Plant response rating, Goosegrass [8, 13]: 70
Plant response rating, Goosegrass [8, 14]: 90
Plant response rating, Groundsel [9, 11]: 95
Plant response rating, Groundsel [9, 12]: 95
Plant response rating, Groundsel [9, 13]: 100
Plant response rating, Groundsel [9, 14]: 100
Plant response rating, Spanishneedles ([10]; 62 g ai/ha, scale 0-100): 100
Plant response rating, Spanishneedles ([10]; 125 g ai/ha, scale 0-100): 100
Plant response rating, Spanishneedles ([10]; 250 g ai/ha, scale 0-100): 100
Plant response rating, Spanishneedles ([10]; 500 g ai/ha, scale 0 to 100): 100

COC(=O)c1nc(C2CC2)nc(N)c1Cl [Compound 9, methyl 6-amino-5-chloro-2-cyclopropyl-4-pyrimidinecarboxylate]
Plant response rating, Horseweed ([1]; 62 g ai/ha, scale 0-100): 100
Plant response rating, Horseweed ([1]; 125 g ai/ha, scale 0-100): 100
Plant response rating, Horseweed ([1]; 250 g ai/ha, scale 0-100): 100
Plant response rating, Horseweed ([1]; 500 g ai/ha, scale 0 to 100): 100
Plant response rating, Dallisgrass [2, 11]: 10
Plant response rating, Dallisgrass [2, 12]: 70
Plant response rating, Dallisgrass [2, 13]: 80
Plant response rating, Dallisgrass [2, 14]: 100
Plant response rating, Johnsongrass ([3]; 62 g ai/ha, scale 0-100): 40
Plant response rating, Johnsongrass ([3]; 125 g ai/ha, scale 0-100): 80
Plant response rating, Johnsongrass ([3]; 250 g ai/ha, scale 0-100): 95
Plant response rating, Johnsongrass ([3]; 500 g ai/ha, scale 0 to 100): 95
Plant response rating, Morningglory [5, 11]: 70
Plant response rating, Morningglory [5, 12]: 100
Plant response rating, Morningglory [5, 13]: 100
Plant response rating, Morningglory [5, 14]: 100
Plant response rating, Spiderwort [6, 11]: 100
Plant response rating, Spiderwort [6, 12]: 100
Plant response rating, Spiderwort [6, 13]: 100
Plant response rating, Spiderwort [6, 14]: 100
Plant response rating, Itchgrass [7, 11]: 30
Plant response rating, Itchgrass [7, 12]: 60
Plant response rating, Itchgrass [7, 13]: 80
Plant response rating, Itchgrass [7, 14]: 85
Plant response rating, Goosegrass [8, 11]: 10
Plant response rating, Goosegrass [8, 12]: 60
Plant response rating, Goosegrass [8, 13]: 95
Plant response rating, Goosegrass [8, 14]: 95
Plant response rating, Spanishneedles ([10]; 62 g ai/ha, scale 0-100): 100
Plant response rating, Spanishneedles ([10]; 125 g ai/ha, scale 0-100): 100
Plant response rating, Spanishneedles ([10]; 250 g ai/ha, scale 0-100): 100
Plant response rating, Spanishneedles ([10]; 500 g ai/ha, scale 0 to 100): 100

Nc1nc(C2CC2)nc(C(=O)OCc2ccccc2)c1Br [Compound 22, phenylmethyl 6-amino-5-bromo-2-cyclopropyl-4-pyrimidinecarboxylate]
Plant response rating, Dallisgrass [2, 15]: 75
Plant response rating, Dallisgrass [2, 16]: 0
Plant response rating, Dallisgrass [2, 17]: 0
Plant response rating, Dallisgrass [2, 18]: 15
Plant response rating, Dallisgrass [2, 19]: 25
Plant response rating, Dallisgrass [2, 20]: 0
Plant response rating, Dallisgrass [2, 21]: 0
Plant response rating, Dallisgrass [2, 11]: 0
Plant response rating, Dallisgrass [2, 12]: 40
Plant response rating, Dallisgrass [2, 13]: 50
Plant response rating, Johnsongrass ([3]; 16 g ai/ha, scale 0-100): 0
Plant response rating, Johnsongrass ([3]; 31 g ai/ha, scale 0-100): 0
Plant response rating, Johnsongrass ([3]; 62 g ai/ha, scale 0-100): 20
Plant response rating, Johnsongrass ([3]; 125 g ai/ha, scale 0-100): 50
Plant response rating, Johnsongrass ([3]; 250 g ai/ha, scale 0-100): 80
Plant response rating, Purslane [4, 15]: 98
Plant response rating, Purslane [4, 16]: 50
Plant response rating, Purslane [4, 17]: 55
Plant response rating, Purslane [4, 18]: 85
Plant response rating, Purslane [4, 19]: 95
Plant response rating, Purslane [4, 20]: 0
Plant response rating, Purslane [4, 21]: 0
Plant response rating, Purslane [4, 11]: 50
Plant response rating, Purslane [4, 12]: 70
Plant response rating, Purslane [4, 13]: 75
Plant response rating, Morningglory [5, 15]: 100
Plant response rating, Morningglory [5, 16]: 50
Plant response rating, Morningglory [5, 17]: 85
Plant response rating, Morningglory [5, 18]: 85
Plant response rating, Morningglory [5, 19]: 95
Plant response rating, Morningglory [5, 20]: 20
Plant response rating, Morningglory [5, 21]: 50
Plant response rating, Morningglory [5, 11]: 60
Plant response rating, Morningglory [5, 12]: 90
Plant response rating, Morningglory [5, 13]: 90
Plant response rating, Spiderwort [6, 15]: 98
Plant response rating, Spiderwort [6, 16]: 15
Plant response rating, Spiderwort [6, 17]: 40
Plant response rating, Spiderwort [6, 18]: 85
Plant response rating, Spiderwort [6, 19]: 95
Plant response rating, Spiderwort [6, 20]: 0
Plant response rating, Spiderwort [6, 21]: 50
Plant response rating, Spiderwort [6, 11]: 95
Plant response rating, Spiderwort [6, 12]: 100
Plant response rating, Spiderwort [6, 13]: 100
Plant response rating, Itchgrass [7, 15]: 85
Plant response rating, Itchgrass [7, 16]: 15
Plant response rating, Itchgrass [7, 17]: 25
Plant response rating, Itchgrass [7, 18]: 50
Plant response rating, Itchgrass [7, 19]: 75
Plant response rating, Itchgrass [7, 20]: 0
Plant response rating, Itchgrass [7, 21]: 0
Plant response rating, Itchgrass [7, 11]: 20
Plant response rating, Itchgrass [7, 12]: 40
Plant response rating, Itchgrass [7, 13]: 65
Plant response rating, Kochia (kochia (Kochia scoparia); [15]): 100
Plant response rating, Kochia (kochia (Kochia scoparia); [16]): 98
Plant response rating, Kochia (kochia (Kochia scoparia); [17]): 98
Plant response rating, Kochia (kochia (Kochia scoparia); [18]): 98
Plant response rating, Kochia (kochia (Kochia scoparia); [19]): 100
Plant response rating, Kochia (kochia (Kochia scoparia); [20]): 35
Plant response rating, Kochia (kochia (Kochia scoparia); [21]): 70
Plant response rating, Kochia (kochia (Kochia scoparia); [11]): 98
Plant response rating, Kochia (kochia (Kochia scoparia); [12]): 100
Plant response rating, Kochia (kochia (Kochia scoparia); [13]): 100
Plant response rating, Goosegrass [8, 15]: 50
Plant response rating, Goosegrass [8, 16]: 5
Plant response rating, Goosegrass [8, 17]: 15
Plant response rating, Goosegrass [8, 18]: 25
Plant response rating, Goosegrass [8, 19]: 35
Plant response rating, Goosegrass [8, 20]: 0
Plant response rating, Goosegrass [8, 21]: 0
Plant response rating, Goosegrass [8, 11]: 0
Plant response rating, Goosegrass [8, 12]: 0
Plant response rating, Goosegrass [8, 13]: 0
Plant response rating, Groundsel [9, 16]: 65
Plant response rating, Groundsel [9, 17]: 65
Plant response rating, Groundsel [9, 18]: 65
Plant response rating, Groundsel [9, 19]: 85
Plant response rating, Groundsel [9, 21]: 0
Plant response rating, Groundsel [9, 13]: 50
